Source: PubChem BioAssay AID248 (DTP/NCI, 2004)
Inconclusive results and toxic doses are left out. Cut-off read from the data, not from the text of the source: active = T/C of 150% or more; inactive = T/C below 125%.

System: L1210 leukemia ip in BDF1 mice, survival T/C
Assay: NCI In Vivo Anticancer Drug Screen. Data for tumor model L1210 Leukemia (intraperitoneal) in B6D2F1 (BDF1) mice
Conditions: endpoint: mean survival time, higher = longer survival
Method in brief: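 Read-out is survival time, reported as the treated-group measurement over the vehicle-control measurement.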

[1] = dose: 100.0 mg/kg/injection, schedule: Q01DX001 (ip), vehicle: saline
[2] = dose: 100.0 mg/kg/injection, schedule: Q01DX009 (ip), vehicle: saline
[3] = dose: 100.0 mg/kg/injection, schedule: Q04DX003 (ip), vehicle: saline
[4] = dose: 200.0 mg/kg/injection, schedule: Q01DX001 (ip), vehicle: saline
[5] = dose: 200.0 mg/kg/injection, schedule: Q04DX003 (ip), vehicle: saline
[6] = dose: 400.0 mg/kg/injection, schedule: Q01DX001 (ip), vehicle: saline
[7] = dose: 100.0 mg/kg/injection, schedule: Q01DX009 (ip), vehicle: Klucel (hydroxypropylcellulose) (HPC)
[8] = dose: 200.0 mg/kg/injection, schedule: Q01DX009 (ip), vehicle: Klucel (hydroxypropylcellulose) (HPC)
[9] = dose: 25.0 mg/kg/injection, schedule: Q04DX003 (ip), vehicle: saline
[10] = dose: 50.0 mg/kg/injection, schedule: Q04DX003 (ip), vehicle: saline
[11] = dose: 100.0 mg/kg/injection, schedule: Q01DX009 (ip), vehicle: saline with Tween-80
[12] = dose: 100.0 mg/kg/injection, schedule: Q04DX003 (ip), vehicle: saline with Tween-80
[13] = dose: 200.0 mg/kg/injection, schedule: Q01DX009 (ip), vehicle: saline with Tween-80
[14] = dose: 200.0 mg/kg/injection, schedule: Q04DX003 (ip), vehicle: saline with Tween-80
[15] = dose: 50.0 mg/kg/injection, schedule: Q01DX009 (ip), vehicle: saline with Tween-80

Measured: T/C

O=C1CCSCC1
inactive: [1] 107 % of control | [2] 100 % of control | [3] 100 % of control | [4] 104 % of control | dose: 200.0 mg/kg/injection, schedule: Q01DX009 (ip), vehicle: saline 95 % of control | [5] 101 % of control | [6] 95 % of control | dose: 400.0 mg/kg/injection, schedule: Q01DX009 (ip), vehicle: saline 95 % of control | dose: 400.0 mg/kg/injection, schedule: Q04DX003 (ip), vehicle: saline 104 % of control

CCn1cc(C(=O)O)c(=O)c2cccc(Cl)c21
inactive: dose: 25.0 mg/kg/injection, schedule: Q04DX002 (ip), vehicle: saline 100 % of control | dose: 50.0 mg/kg/injection, schedule: Q04DX002 (ip), vehicle: saline 107 % of control | dose: 100.0 mg/kg/injection, schedule: Q04DX002 (ip), vehicle: saline 107 % of control | dose: 200.0 mg/kg/injection, schedule: Q04DX002 (ip), vehicle: saline 99 % of control | dose: 400.0 mg/kg/injection, schedule: Q04DX002 (ip), vehicle: saline 118 % of control

COc1cc(C2=C3C(=O)OCC3Cc3ccccc32)ccc1OCc1ccccc1 (stereo not given)
inactive: [1] 97 % of control | [4] 95 % of control | [6] 98 % of control

CC1CN1P(=S)(Oc1ccccc1)N1CC1C (stereo not given)
inactive: dose: 7.0 mg/kg/injection, schedule: Q01DX015 (ip), vehicle: carboxymethylcellulose (CMC) 94 % of control | dose: 13.0 mg/kg/injection, schedule: Q01DX015 (ip), vehicle: carboxymethylcellulose (CMC) 98 % of control | dose: 25.0 mg/kg/injection, schedule: Q01DX015 (ip), vehicle: carboxymethylcellulose (CMC) 97 % of control | dose: 50.0 mg/kg/injection, schedule: Q01DX015 (ip), vehicle: carboxymethylcellulose (CMC) 91 % of control | [1] 105 % of control | dose: 100.0 mg/kg/injection, schedule: Q01DX015 (ip), vehicle: carboxymethylcellulose (CMC) 103 % of control | [4] 102 % of control | dose: 200.0 mg/kg/injection, schedule: Q01DX015 (ip), vehicle: saline 95 % of control | [6] 100 % of control | dose: 400.0 mg/kg/injection, schedule: Q01DX015 (ip), vehicle: saline 91 % of control | dose: 800.0 mg/kg/injection, schedule: Q01DX001 (ip), vehicle: saline 95 % of control | dose: 1600.0 mg/kg/injection, schedule: Q01DX001 (ip), vehicle: saline 103 % of control

Cc1cc(C(=O)O)c(C)n1-c1cccc(C(=O)O)c1
inactive: dose: 50.0 mg/kg/injection, schedule: Q01DX009 (ip), vehicle: Klucel (hydroxypropylcellulose) (HPC) 102 % of control | dose: 100.0 mg/kg/injection, schedule: Q01DX001 (ip), vehicle: Klucel (hydroxypropylcellulose) (HPC) 94 % of control | [7] 102 % of control | dose: 200.0 mg/kg/injection, schedule: Q01DX001 (ip), vehicle: Klucel (hydroxypropylcellulose) (HPC) 102 % of control | [8] 89 % of control | dose: 400.0 mg/kg/injection, schedule: Q01DX001 (ip), vehicle: Klucel (hydroxypropylcellulose) (HPC) 91 % of control

CC(C)=CCC/C(C)=C/CN
inactive: [9] 101 % of control | [10] 92 % of control | [2] 95 % of control | [3] 97 % of control

CC(N)C(=O)NCCCl (stereo not given)
inactive: dose: 10.0 mg/kg/injection, schedule: Q01DX Z (ip), vehicle: saline 91 % of control | dose: 30.0 mg/kg/injection, schedule: Q01DX Z (ip), vehicle: saline 104 % of control | dose: 100.0 mg/kg/injection, schedule: Q01DX Z (ip), vehicle: saline 91 % of control | dose: 300.0 mg/kg/injection, schedule: Q01DX Z (ip), vehicle: saline 93 % of control

CC1=CC(C)(C)NC(=S)N1C
inactive: dose: 6.25 mg/kg/injection, schedule: Q04DX003 (ip), vehicle: saline with Tween-80 96 % of control | dose: 12.5 mg/kg/injection, schedule: Q04DX003 (ip), vehicle: saline with Tween-80 95 % of control | dose: 25.0 mg/kg/injection, schedule: Q04DX003 (ip), vehicle: saline with Tween-80 95 % of control | dose: 166.0 mg/kg/injection, schedule: Q01DX Z (ip), vehicle: methylcellulose (MC) 87 % of control

CCCCN(CCCC)c1ccc(C(=O)O)cc1
inactive: [11] 100 % of control | [12] 100 % of control | [13] 102 % of control | [14] 98 % of control

OC(/C=C/c1ccccc1)C(O)/C=C/c1ccccc1 (stereo not given)
inactive: [11] 102 % of control | [13] 104 % of control | dose: 400.0 mg/kg/injection, schedule: Q01DX009 (ip), vehicle: saline with Tween-80 111 % of control

CCCOCCC(c1ccccc1)(c1ccccc1)c1ccccc1
inactive: dose: 12.5 mg/kg/injection, schedule: Q01DX009 (ip), vehicle: saline with Tween-80 98 % of control | dose: 25.0 mg/kg/injection, schedule: Q01DX009 (ip), vehicle: saline with Tween-80 98 % of control | [15] 95 % of control | [13] 87 % of control

CC(C)CCCC(C)C1CCC2C3CC(=O)C45CC4CCC5(C)C3CCC12C (stereo not given)
inactive: dose: 100.0 mg/kg/injection, schedule: Q04DX003 (ip), vehicle: other 97 % of control | dose: 200.0 mg/kg/injection, schedule: Q04DX003 (ip), vehicle: other 102 % of control | dose: 400.0 mg/kg/injection, schedule: Q04DX003 (ip), vehicle: other 108 % of control

CCN(CC)C(=O)C1C=C2c3cccc4c3c(c(Br)n4C)CC2N(C)C1 (stereo not given)
inactive: dose: 12.5 mg/kg/injection, schedule: Q01DX009 (ip), vehicle: saline 102 % of control | dose: 25.0 mg/kg/injection, schedule: Q01DX009 (ip), vehicle: saline 120 % of control | [9] 103 % of control | dose: 50.0 mg/kg/injection, schedule: Q01DX009 (ip), vehicle: saline 112 % of control | [10] 98 % of control | [2] 107 % of control | [3] 104 % of control | [5] 106 % of control

O=C(O)c1cc(=O)n2c3c(cccc13)CCC2
inactive: dose: 50.0 mg/kg/injection, schedule: Q04DX003 (ip), vehicle: saline with Tween-80 101 % of control | [12] 104 % of control | [14] 90 % of control

CCCCC#CC(O)(C(=O)OC)c1ccccc1 (stereo not given)
inactive: dose: 100.0 mg/kg/injection, schedule: Q01DX001 (ip), vehicle: other 107 % of control | dose: 200.0 mg/kg/injection, schedule: Q01DX001 (ip), vehicle: other 110 % of control | dose: 400.0 mg/kg/injection, schedule: Q01DX001 (ip), vehicle: other 94 % of control

CC(=O)Nc1ccc(C=Nc2ccc3c(c2)Cc2ccccc2-3)cc1
inactive: [7] 91 % of control | dose: 100.0 mg/kg/injection, schedule: Q04DX003 (ip), vehicle: Klucel (hydroxypropylcellulose) (HPC) 94 % of control | [8] 87 % of control | dose: 200.0 mg/kg/injection, schedule: Q04DX003 (ip), vehicle: Klucel (hydroxypropylcellulose) (HPC) 90 % of control | dose: 400.0 mg/kg/injection, schedule: Q01DX009 (ip), vehicle: Klucel (hydroxypropylcellulose) (HPC) 86 % of control | dose: 400.0 mg/kg/injection, schedule: Q04DX003 (ip), vehicle: Klucel (hydroxypropylcellulose) (HPC) 89 % of control

COC1C(OC(C)=O)C(OC(C)=O)C(OC(C)=O)C(OC(C)=O)C1OC(C)=O (stereo not given)
inactive: [15] 94 % of control | [11] 98 % of control | [13] 88 % of control

COc1ccc(C)cc1NC(=O)/C=C/c1ccccc1
inactive: dose: 100.0 mg/kg/injection, schedule: Q04DX002 (ip), vehicle: Klucel (hydroxypropylcellulose) (HPC) 100 % of control | dose: 200.0 mg/kg/injection, schedule: Q04DX002 (ip), vehicle: Klucel (hydroxypropylcellulose) (HPC) 100 % of control | dose: 400.0 mg/kg/injection, schedule: Q04DX002 (ip), vehicle: Klucel (hydroxypropylcellulose) (HPC) 100 % of control

Cc1ccc([I+]c2ccc(C)cc2)cc1
inactive: dose: 8.0 mg/kg/injection, schedule: Q04DX002 (ip), vehicle: saline 101 % of control | dose: 16.0 mg/kg/injection, schedule: Q04DX002 (ip), vehicle: saline 92 % of control | dose: 32.0 mg/kg/injection, schedule: Q04DX002 (ip), vehicle: saline 92 % of control
